Experiments:
[1] = molecular target: SIK2 (Homo sapiens (Human), UniProt Q9H0K1); experiment: Percent activity against SIK2 at 1 μM; format: biochemical; settings: for SIK2 % ACTIVITY: compound at 1 μM, approximate Km for ATP
[2] = molecular target: SIK1 (Homo sapiens (Human), UniProt P57059); experiment: Percent activity against SIK1 at 1 μM; format: biochemical; settings: for SIK1 % ACTIVITY: compound at 1 μM, approximate Km for ATP
[3] = Viability loss (Table 4); format: cell-based
[4] = qAC50 biological assay (Table 4); settings: for Data Mode: curve direction of qAC50 data
[5] = molecular target: SIK3 (Homo sapiens (Human), UniProt Q9Y2K2); experiment: Percent activity against SIK3 at 1 μM; format: biochemical; settings: for SIK3 % ACTIVITY: compound at 1 μM, approximate Km for ATP
[6] = molecular target: full length His6-MBP-tagged hSIK2 (Homo sapiens (Human), UniProt Q9H0K1); experiment: SIK2 kinase activity assay (Caliper-based mobility shift); format: biochemical; settings: 4 nM hSIK2, 30 μM ATP, 1 hr, rt
Protocol: Reactions were quenched by adding 20 mM EDTA (pH 8) after 1 hr, and percentage of substrate conversion was measured by LabChip EZ Reader II (PerkinElmer).

SIK1, sequence (P57059 whole entry): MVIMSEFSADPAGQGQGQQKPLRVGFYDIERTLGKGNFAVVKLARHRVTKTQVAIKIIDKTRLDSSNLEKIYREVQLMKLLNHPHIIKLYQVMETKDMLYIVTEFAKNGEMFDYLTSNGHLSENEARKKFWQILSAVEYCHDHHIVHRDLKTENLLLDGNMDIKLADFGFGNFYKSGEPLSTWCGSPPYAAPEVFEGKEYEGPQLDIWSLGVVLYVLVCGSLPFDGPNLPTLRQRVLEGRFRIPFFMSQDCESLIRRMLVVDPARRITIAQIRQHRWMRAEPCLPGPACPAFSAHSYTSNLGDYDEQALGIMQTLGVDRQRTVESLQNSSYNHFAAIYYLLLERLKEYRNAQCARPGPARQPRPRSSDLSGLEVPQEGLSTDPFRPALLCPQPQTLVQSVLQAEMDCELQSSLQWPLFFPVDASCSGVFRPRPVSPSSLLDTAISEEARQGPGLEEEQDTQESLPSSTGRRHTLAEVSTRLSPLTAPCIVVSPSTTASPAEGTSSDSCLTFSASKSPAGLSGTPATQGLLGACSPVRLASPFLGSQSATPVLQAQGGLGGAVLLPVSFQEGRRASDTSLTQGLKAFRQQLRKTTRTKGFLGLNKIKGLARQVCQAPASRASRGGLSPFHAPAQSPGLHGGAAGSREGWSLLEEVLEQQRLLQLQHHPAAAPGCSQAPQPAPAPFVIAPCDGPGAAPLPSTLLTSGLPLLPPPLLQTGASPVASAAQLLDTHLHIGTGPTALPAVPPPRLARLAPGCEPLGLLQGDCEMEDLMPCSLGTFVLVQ
SIK3, sequence (Q9Y2K2 whole entry): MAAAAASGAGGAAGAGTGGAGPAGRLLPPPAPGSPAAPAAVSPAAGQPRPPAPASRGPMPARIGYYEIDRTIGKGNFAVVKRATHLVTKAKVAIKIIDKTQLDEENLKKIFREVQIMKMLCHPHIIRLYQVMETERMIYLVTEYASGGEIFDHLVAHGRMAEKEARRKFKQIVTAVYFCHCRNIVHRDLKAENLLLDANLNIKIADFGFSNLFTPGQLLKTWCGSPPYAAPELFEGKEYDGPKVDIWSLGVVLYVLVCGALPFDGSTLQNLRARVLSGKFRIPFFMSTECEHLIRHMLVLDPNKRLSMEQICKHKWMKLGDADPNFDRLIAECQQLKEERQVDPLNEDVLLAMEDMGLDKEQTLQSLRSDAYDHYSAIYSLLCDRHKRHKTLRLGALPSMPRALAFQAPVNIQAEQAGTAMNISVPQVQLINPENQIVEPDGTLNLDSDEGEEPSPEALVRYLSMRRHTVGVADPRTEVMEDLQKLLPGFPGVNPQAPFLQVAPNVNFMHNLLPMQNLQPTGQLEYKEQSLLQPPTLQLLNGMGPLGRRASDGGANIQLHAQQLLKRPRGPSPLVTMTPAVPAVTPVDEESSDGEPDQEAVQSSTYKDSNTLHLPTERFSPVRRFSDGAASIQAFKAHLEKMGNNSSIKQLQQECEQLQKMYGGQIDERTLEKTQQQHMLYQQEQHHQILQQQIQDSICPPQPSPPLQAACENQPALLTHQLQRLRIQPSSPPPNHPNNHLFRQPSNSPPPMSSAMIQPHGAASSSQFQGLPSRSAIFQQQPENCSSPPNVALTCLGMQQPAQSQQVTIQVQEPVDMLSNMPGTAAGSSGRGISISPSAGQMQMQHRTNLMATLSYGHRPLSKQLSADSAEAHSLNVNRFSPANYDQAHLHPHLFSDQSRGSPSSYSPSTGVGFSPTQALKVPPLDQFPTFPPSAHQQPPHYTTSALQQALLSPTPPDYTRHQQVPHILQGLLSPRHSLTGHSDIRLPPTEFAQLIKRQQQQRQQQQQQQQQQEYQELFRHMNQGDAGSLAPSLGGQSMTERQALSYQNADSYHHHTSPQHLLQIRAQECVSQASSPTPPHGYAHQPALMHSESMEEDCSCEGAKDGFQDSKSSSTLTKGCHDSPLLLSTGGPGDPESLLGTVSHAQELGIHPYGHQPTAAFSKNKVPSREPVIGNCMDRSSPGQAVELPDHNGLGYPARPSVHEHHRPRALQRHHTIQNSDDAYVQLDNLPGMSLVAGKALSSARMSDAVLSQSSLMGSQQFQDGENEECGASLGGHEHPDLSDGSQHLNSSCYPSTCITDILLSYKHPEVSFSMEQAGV
SIK2, sequence (Q9H0K1 whole entry): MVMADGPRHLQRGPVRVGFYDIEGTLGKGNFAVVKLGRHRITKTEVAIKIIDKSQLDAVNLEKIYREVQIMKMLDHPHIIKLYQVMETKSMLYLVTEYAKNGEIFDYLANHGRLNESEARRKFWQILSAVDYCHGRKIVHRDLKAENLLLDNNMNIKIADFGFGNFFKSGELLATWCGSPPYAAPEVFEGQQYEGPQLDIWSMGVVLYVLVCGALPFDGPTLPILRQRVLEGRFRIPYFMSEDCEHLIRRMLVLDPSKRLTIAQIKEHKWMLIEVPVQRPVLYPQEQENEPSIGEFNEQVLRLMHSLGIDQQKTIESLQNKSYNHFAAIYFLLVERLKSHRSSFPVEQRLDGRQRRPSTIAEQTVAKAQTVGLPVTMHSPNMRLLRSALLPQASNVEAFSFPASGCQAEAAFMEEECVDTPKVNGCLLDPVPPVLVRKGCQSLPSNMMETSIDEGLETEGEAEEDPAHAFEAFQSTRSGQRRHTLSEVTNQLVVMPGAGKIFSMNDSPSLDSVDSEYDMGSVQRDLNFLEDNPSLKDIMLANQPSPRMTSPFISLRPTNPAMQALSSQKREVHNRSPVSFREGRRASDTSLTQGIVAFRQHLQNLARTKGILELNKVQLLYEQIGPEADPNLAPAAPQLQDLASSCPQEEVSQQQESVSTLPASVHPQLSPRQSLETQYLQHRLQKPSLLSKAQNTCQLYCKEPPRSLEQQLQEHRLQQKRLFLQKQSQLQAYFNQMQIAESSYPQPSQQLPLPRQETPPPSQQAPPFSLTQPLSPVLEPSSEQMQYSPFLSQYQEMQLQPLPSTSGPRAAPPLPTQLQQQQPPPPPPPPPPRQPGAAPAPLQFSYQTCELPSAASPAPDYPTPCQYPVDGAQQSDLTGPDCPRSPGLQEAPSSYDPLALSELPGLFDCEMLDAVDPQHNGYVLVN
full length His6-MBP-tagged hSIK2, sequence (Q9H0K1 whole entry): as above

Row | Structure (SMILES) | SIK2 % ACTIVITY [1] [%] | SIK1 % ACTIVITY [2] [%] | Enzyme activity at 1 μM (%) SIK2 [1] [%] | Enzyme activity at 1 μM (%) SIK1 [2] [%] | Enzyme activity at 1 μM (%) SIK3 [5] [%] | SIK3 % ACTIVITY [5] [%] | IC50 [6] [nM] | Viability loss AC40 [3] [nM] | Viability loss data mode [3] | qAC50 [4] [nM] | Data Mode [4]
1 | Cc1ccc(Nc2ncc3c(n2)N(C)C(=O)N(c2cc(NC(=O)c4cccc(C(F)(F)F)c4)ccc2C)C3)cn1 [GNF-7] | 27.4 | 12.0 | – | – | – | – | – | – | – | – | –
2 | Cc1ccc(NC(=O)c2cccc(C(F)(F)F)c2)cc1N1Cc2cnc(Nc3ccc(N4CCN(C)CC4)cc3)nc2N(C)C1=O [HG-11-23-01] | 7.0 | 12.5 | 7 | 12.5 | – | – | – | 106 | decreasing | <50 | decreasing
3 | CN1CCN(c2ccc(Nc3ncc4c(n3)N(C)C(=O)N(c3ccccc3)C4)cc2)CC1 [HG-11-137-01] | 1.4 | 12.9 | 1.4 | 12.9 | 8.6 | 8.6 | – | 6960 | decreasing | 466 | increasing
4 | COc1ccc(N2C(=O)N(c3c(C)cccc3C)Cc3cnc(Nc4ccc(N5CCN(C)CC5)cc4OC)nc32)c(OC)c1 [HG-11-139-01] | 2.1 | 15.3 | 2.1 | 15.3 | 7.5 | 7.5 | – | 8910 | decreasing | <50 | increasing

Continued, in another order:

Row | SIK2 % ACTIVITY [1] [%] | SIK1 % ACTIVITY [2] [%] | Enzyme activity at 1 μM (%) SIK2 [1] [%] | Enzyme activity at 1 μM (%) SIK1 [2] [%] | Enzyme activity at 1 μM (%) SIK3 [5] [%] | SIK3 % ACTIVITY [5] [%] | IC50 [6] [nM] | Structure (SMILES) | Viability loss AC40 [3] [nM] | Viability loss data mode [3] | qAC50 [4] [nM] | Data Mode [4]
5 | 32.8 | 36.0 | – | – | – | – | – | COc1cc(N2CCN(C)CC2)ccc1Nc1ncc2c(n1)N(C)C(=O)N(c1ccccc1)C2 [HG-11-139-02] | > 10000 | inactive | >26000 | increasing
6 | 4.3 | 7.9 | 4.3 | 7.9 | 9.3 | 9.3 | – | COc1ccc(N2C(=O)N(c3c(C)cccc3C)Cc3cnc(Nc4cc(N5CCOCC5)cc(N5CCN(C)CC5)c4)nc32)c(OC)c1 [HG-11-143-01] | – | – | 469 | decreasing
7 | – | – | – | – | – | – | 6 ± 3 | COc1ccc(N2C(=O)N(c3c(C)cccc3Cl)Cc3cnc(Nc4ccc(N5CCN(C)CC5)cc4)nc32)nc1 [YKL-05-95] | – | – | – | –
8 | – | – | – | – | – | – | 34 ± 14 | COc1ccc(N2C(=O)N(c3c(C)cccc3Cl)Cc3cnc(Nc4ccc(N5CCN(C)CC5)cc4OC)nc32)nc1 [YKL-05-96] | – | – | – | –

Reference: patent US11725011B2, “Bicyclic urea kinase inhibitors and uses thereof” (The Broad Institute, Inc., priority 2016, dated 2023)
